SMILES strings stand for the structures. Converted amounts (≈) assume the structure as drawn.

The test system of the assay is Bipolaris oryzae. Kind of assay: Antifungal activity against Cochliobolus miyabeanus assessed as hyphal growth inhibition after 36 hrs. In kind it is functional, organism-based.
As a reminder, the IC50 is the concentration at which inhibition is half-maximal. Consider `C=C1OC(=O)c2c(O)cc(O)c(C)c2[C@@]1(C)O`, for which the IC50 turned out to be 10 µg/mL (≈ 42.3 µM).
Take `C=C1OC(=O)c2c(O)cc(OC)c(C)c2[C@@]1(C)O`: the IC50 was 0.5 µg/mL (≈ 2 µM).
As for `COc1cc(O)c2c(c1C)[C@](C)(C(C)=O)OC2=O`, the figure is 10 µg/mL (≈ 40 µM); as for `COc1cc(O)c2c(c1C)[C@](C)([C@H](C)O)OC2=O`, 500 µg/mL (≈ 1980 µM).

For the origin of these results see ChEMBL document CHEMBL1764960, “Stereochemical investigations of isochromenones and isobenzofuranones isolated from Leptosphaeria sp. KTC 727” (J Nat Prod, 2011).
